Assay results from patent US6887902B2, “Anti-inflammatory method using gamma-aminobutyric acid (GABA) analogs” (Warner-Lambert Company, priority 1997, dated 2005).

Tests used:
[1] = system: SCW (PG-PS) induced reactivation arthritis, ankle swelling; assay: streptococcal cell wall (SCW) induced reactivation arthritis assay; type: in vivo, Female Lewis rats
Experimental: The assay is a streptococcal cell wall (SCW) induced reactivation arthritis assay. Female Lewis rats were injected intra-articularly with 10 μL of 100 p fraction peptidoglyean polysaccharide (PG-PS) suspended in phosphate buffered saline (PBS). The contralateral joints were injected with PBS as control. Systemic challenge with 100 μg of PG-PS was given via the tail vein 21 days after the initial inoculation. The animals were dosed orally three times a day with pregabalin (3, 10, and 30 mg/kg) on a 12-hour cycle for 72 hours. The first dose was given 1 hour before the systemic challenge.
The volume of the ankles increased by about 0.5 mL within 72 hours. Pregabalin at 10 and 30 mg/kg dose dependently attenuated the increase in edema up to 40% during the 72-hour observation period.

[2] = system: kaolin and carrageenan knee joint arthritis; assay: acute experimental arthritis by kaolin and carrageenan in the knee joint, spinal infusion of pregabalin or its R-isomer; settings: for PWL (thermal paw withdrawal latency) compared to baseline: 10 mg/mL infused into dorsal horn alone, before induction of arthritis; for thermal hyperalgesia (PWL) at 5.5 hours: 0.9 mg/mL infused into dorsal horn after development of arthritis; for PWL after infusion: 10 mg/mL infused after inflammation of the knee joint; for spontaneous pain (paw posture): both doses (0.9 and 10 mg/mL); for secondary thermal hyperalgesia (PWL) / abnormal paw posture indicative of spontaneous pain / reduction of knee joint swelling compared to aCSF rats: pre-treatment; for secondary thermal hyperalgesia (PWL): 10 mg/mL spinal infusion for 1.5 hours before kaolin and carrageenan, 4 hours post-injection; for abnormal paw posture indicative of spontaneous pain: spinal infusion before induction of arthritis; for reduction of knee joint swelling compared to aCSF rats: spinal infusion for 1.5 hours before induction of arthritis, P<0.05
Experimental: Acute experimental arthritis was induced in rats by injection of kaolin and carrageenan into the knee joint. […] Concomitant with the injury to the joint tissue, both peripheral and central sensitization occurs, which is manifested in the awake rat as hyperalgesia, which can be easily quantified by measuring a reduction in paw withdrawal latencies to a radiant heat source. Both pregabalin and its R-stereoisomer (R-(−)-3-IBG) were administered before inflammation was induced, and after the inflammation was developed.
Thirty-six male Sprague-Dawley rats (235-380 g) were anesthetized with sodium pentobarbital (Nembutal; 50 mg/kg^−1 i.p.). A microdialysis fiber (200 μm o.d., 45000 MW Cut-off, Hospal AN69) was coated with epoxy resin, except for a 2 mm section. A small midline incision was made in the back at the level of the last rib. The muscle was then removed from around the T12 vertebra and a hole drilled in both lateral aspects. The microdialysis fiber was then passed transversely through the dorsal horn of the spinal cord between lumbar segments L4-L6 so that the permeable 2 mm of the fiber lay in the dorsal horn. The microdialysis fiber was connected to PE20 tubing (Becton and Dickson) which was then tunneled under the skin to the nape of the neck. The fiber was stabilized with dental cement. Artificial cerebrospinal fluid (aCSF) was pumped through the tubing at a rate of 5 μL/min for 1 hour before the PE20 was sealed and the animals allowed to recover.
As a measure of thermal hyperalgesia, animals were tested for paw withdrawal to radiant heat. On the day following fiber placement, animals were housed in small lucite cubicles on an elevated glass plate. Radiant heat was applied to the plantar surface of the heel of the hindpaw until the rat lifted the paw. The time at which this occurred was considered the paw withdrawal latency (PWL). Both paws were tested independently at 5-minute intervals, for a total of 5 trials. A mean of these five readings was used as the PWL. […] PWL was measured for a final time 4 hours after arthritis induction. In the post-treatment group, the animals were tested before induction of arthritis in the knee joint (control), 4-hours post-induction, and 1.5 hours after of drug infusion, i.e. 5.5 hours after arthritis induction. A decrease in the PWL to radiant heat in an animal with knee joint inflammation is indicative of secondary hyperalgesia.
The circumference of the knee joint was also measured before injection of kaolin and carrageenan (control) using a flexible tape measure. The extent of guarding of the hindpaw was also noted after arthritis was induced. To quantify these changes, the animals were graded by a subjective pain rating scale (0-5), where: 0 is normal; 1 is curling of the toes; 2 is eversion of the paw; 3 is partial weight bearing; 4 is non-weight bearing and guarding; and 5 is avoidance of any contact with the hindlimb.
Rats were anesthetized briefly with sodium methohexital (Brevital; 60 mg/kg^−1 i.p.) after the control behavioral test (post-treatment group) or after infusion of the drug (pre-treatment group). The knee joint was then injected with 3% kaolin and 3% carrageenan suspended in sterile saline (0.1 mL; pH 7.4). The knee joint was then flexed manually until the rat awoke (approximately 5 minutes).
All GABA analogs were dissolved in an artificial cerebral spinal fluid solution (aCSF) (pH 7.4, adjusted by bubbling with 95% CO2/5% O2) and infused through the spinal cord at 5 μL/min^−1. The animals received either pregabalin, R-(−)-3-IBG, or aCSF.

Q: With `CC(C)C[C@H](CN)CC(=O)O` [Pregabalin, (S)-3-(aminomethyl)-5-methylhexanoic acid] as the compound, how does the “attenuation of the increase in edema” value ([1]; 10 and 30 mg/kg oral, dose dependent, 72-hour observation period) read?
A: up to 40%

Q: And the “Swelling (delta edema, mL)” value ([1]; Day 22, pregabalin oral 3.0 mg/kg, vehicle group 0.20)?
A: 0.12 mL

Q: What about the “Swelling (delta edema, mL)” value ([1]; Day 22, pregabalin oral 10.0 mg/kg, vehicle group 0.20) of the same compound?
A: 0.04 mL

Q: What about the “Swelling (delta edema, mL)” value ([1]; Day 22, pregabalin oral 30.0 mg/kg, vehicle group 0.20) of the same compound?
A: 0.06 mL

Q: And the “Swelling (delta edema, mL)” value ([1]; Day 23, pregabalin oral 3.0 mg/kg, vehicle group 0.45)?
A: 0.38 mL

Q: And the “Swelling (delta edema, mL)” value ([1]; Day 23, pregabalin oral 10.0 mg/kg, vehicle group 0.45)?
A: 0.25 mL

Q: And the “Swelling (delta edema, mL)” value ([1]; Day 23, pregabalin oral 30.0 mg/kg, vehicle group 0.45)?
A: 0.20 mL

Q: And the “Swelling (delta edema, mL)” value ([1]; Day 24, pregabalin oral 3.0 mg/kg, vehicle group 0.50)?
A: 0.50 mL

Q: And the “Swelling (delta edema, mL)” value ([1]; Day 24, pregabalin oral 10.0 mg/kg, vehicle group 0.50)?
A: 0.31 mL

Q: And the “Swelling (delta edema, mL)” value ([1]; Day 24, pregabalin oral 30.0 mg/kg, vehicle group 0.50)?
A: 0.21 mL

Q: What about the “PWL (thermal paw withdrawal latency) compared to baseline” value [2] of the same compound?
A: did not change PWL

Q: And the “thermal hyperalgesia (PWL) at 5.5 hours” value ([2]; post-treatment)?
A: reduced the thermal hyperalgesia

Q: What about the PWL after infusion ([2]; post-treatment) of the same compound?
A: return of the PWL to the control value

Q: And the “spontaneous pain (paw posture)” value ([2]; post-treatment)?
A: spontaneous pain was also reduced

Q: And the “comparison of the isomers in reducing thermal hyperalgesia” value ([2]; post-treatment, spinal infusion)?
A: more effective in reducing thermal hyperalgesia than its R-isomer

Q: What about the “secondary thermal hyperalgesia (PWL)” value [2] of the same compound?
A: no secondary thermal hyperalgesia was observed

Q: And the “abnormal paw posture indicative of spontaneous pain” value [2]?
A: prevented the development of abnormal paw posture

Q: And the “reduction of knee joint swelling compared to aCSF rats” value [2]?
A: approximately 30%

Q: For `CC(C)C[C@@H](CN)CC(=O)O` [R-(−)-3-IBG], which “PWL (thermal paw withdrawal latency) compared to baseline” value [2] is on record?
A: did not change PWL

Q: What about the “thermal hyperalgesia (PWL) at 5.5 hours” value ([2]; post-treatment) of the same compound?
A: reduced the thermal hyperalgesia

Q: What about the PWL after infusion ([2]; post-treatment) of the same compound?
A: return of the PWL to the control value

Q: And the “spontaneous pain (paw posture)” value ([2]; post-treatment)?
A: spontaneous pain was also reduced

Q: What about the “secondary thermal hyperalgesia (PWL)” value [2] of the same compound?
A: no secondary thermal hyperalgesia was observed

Q: And the “abnormal paw posture indicative of spontaneous pain” value [2]?
A: prevented the development of abnormal paw posture

Q: What about the “reduction of knee joint swelling compared to aCSF rats” value [2] of the same compound?
A: approximately 30%
